In PubChem BioAssay AID1259407 (Chemical Carcinogenesis Research Information System (CCRIS), 2018) one finds mutagenic call data, which are given here for eight molecules.

The data set deals with CCRIS mutagenicity, Ames/micronucleus/aberration tests. The experiment in a line: CCRIS mutagenicity studies.
Setting [1] is: Test System: AMES SALMONELLA TYPHIMURIUM, Strain/Indicator: TA98, Metabolic Activation: NONE, Method: STANDARD PLATE.
[2] abbreviates: Test System: AMES SALMONELLA TYPHIMURIUM, Strain/Indicator: TA98, Metabolic Activation: RAT, LIVER, S-9, AROCLOR 1254, Method: STANDARD PLATE.
Where [3] appears, read: Test System: AMES SALMONELLA TYPHIMURIUM, Strain/Indicator: TA100, Metabolic Activation: NONE, Method: STANDARD PLATE.
Where [4] appears, read: Test System: AMES SALMONELLA TYPHIMURIUM, Strain/Indicator: TA100, Metabolic Activation: RAT, LIVER, S-9, AROCLOR 1254, Method: STANDARD PLATE.
[5] abbreviates: Test System: AMES SALMONELLA TYPHIMURIUM, Strain/Indicator: TA104, Metabolic Activation: NONE, Method: STANDARD PLATE.
Setting [6] is: Test System: AMES SALMONELLA TYPHIMURIUM, Strain/Indicator: TA104, Metabolic Activation: RAT, LIVER, S-9, AROCLOR 1254, Method: STANDARD PLATE.
Where [7] appears, read: Test System: AMES SALMONELLA TYPHIMURIUM, Strain/Indicator: TA1537, Metabolic Activation: NONE, Method: STANDARD PLATE.
[8] abbreviates: Test System: AMES SALMONELLA TYPHIMURIUM, Strain/Indicator: TA98, Metabolic Activation: NONE, Method: PREINCUBATION

The source made the active and inactive calls. No rule for the calls is given here.

Regarding `ClCCCCl`, the mutagenic call was “inactive; negative” (Test System: AMES SALMONELLA TYPHIMURIUM, Strain/Indicator: GSTT1, Metabolic Activation: RAT, LIVER, S-9, AROCLOR 1254, Method: STANDARD PLATE); “inactive; negative” (Test System: AMES SALMONELLA TYPHIMURIUM, Strain/Indicator: RSJ100, Metabolic Activation: NONE, Method: STANDARD PLATE); “inactive; negative” under setting [1]; “inactive; negative” under setting [2]; “inactive; negative” under setting [3]; “inactive; negative” under setting [4]. The mutagenic call by setting is: under setting [5], “inactive; negative”; under setting [6], “inactive; negative”; (Test System: AMES SALMONELLA TYPHIMURIUM, Strain/Indicator: TA1535, Metabolic Activation: NONE, Method: STANDARD PLATE) “inactive; negative”; (Test System: AMES SALMONELLA TYPHIMURIUM, Strain/Indicator: TA1535, Metabolic Activation: RAT, LIVER, S-9, AROCLOR 1254, Method: STANDARD PLATE) “inactive; negative”.

With `CC/C=C/C=C/C=C/C=C/C=C/OC[C@@H](O)CO`, the mutagenic call reads like this: under setting [1], “active; positive”; (Test System: AMES SALMONELLA TYPHIMURIUM, Strain/Indicator: TA98, Metabolic Activation: NONE, Method: STANDARD PLATE (AEROBIC)) “inactive; negative”; (Test System: AMES SALMONELLA TYPHIMURIUM, Strain/Indicator: TA98, Metabolic Activation: NONE, Method: STANDARD PLATE (ANAEROBIC)) “active; positive”; under setting [2], “inactive; negative”; (Test System: AMES SALMONELLA TYPHIMURIUM, Strain/Indicator: TA100, Metabolic Activation: NONE, Method: FLUCTUATION TEST (AEROBIC)) “active; positive”; (Test System: AMES SALMONELLA TYPHIMURIUM, Strain/Indicator: TA100, Metabolic Activation: NONE, Method: FLUCTUATION TEST (ANAEROBIC)) “active; positive”. Besides, the mutagenic call runs as follows: under setting [3], “active; positive”; (Test System: AMES SALMONELLA TYPHIMURIUM, Strain/Indicator: TA100, Metabolic Activation: NONE, Method: STANDARD PLATE (AEROBIC)) “active; positive”; (Test System: AMES SALMONELLA TYPHIMURIUM, Strain/Indicator: TA100, Metabolic Activation: NONE, Method: STANDARD PLATE (ANAEROBIC)) “inactive; negative”; (Test System: AMES SALMONELLA TYPHIMURIUM, Strain/Indicator: TA100, Metabolic Activation: RAT, LIVER, S-9, AROCLOR 1254, Method: PREINCUBATION) “active; positive”; under setting [4], “active; positive”; (Test System: AMES SALMONELLA TYPHIMURIUM, Strain/Indicator: TA102, Metabolic Activation: NONE, Method: STANDARD PLATE) “active; positive”. Moreover, the mutagenic call runs as follows: under setting [5], “active; positive”; under setting [6], “active; positive”; (Test System: E. COLI, Strain/Indicator: WP2 UVRA (PKM101), Metabolic Activation: NONE, Method: STANDARD PLATE (AEROBIC)) “active; positive”; (Test System: E. COLI, Strain/Indicator: WP2 UVRA (PKM101), Metabolic Activation: NONE, Method: STANDARD PLATE (ANAEROBIC)) “inactive; negative”; (Test System: MOUSE LYMPHOMA, Strain/Indicator: L5178Y (TK+/TK-), Metabolic Activation: NONE, Method: SUSPENSION/PLATE) “active; positive”; (Test System: MOUSE LYMPHOMA, Strain/Indicator: L5178Y (TK+/TK-), Metabolic Activation: RAT, LIVER, S-9, AROCLOR 1254, Method: SUSPENSION/PLATE) “active; positive”. Moreover, the mutagenic call (Test System: Mouse lymphoma, Strain/Indicator: L5178Y (tk+/tk-), Metabolic Activation: None, Method: Suspension/plate) is “active; positive” and the mutagenic call (Test System: Mouse lymphoma, Strain/Indicator: L5178Y (tk+/tk-), Metabolic Activation: Rat, Liver, S-9, Aroclor 1254, Method: Suspension/plate) was “inactive; negative”.

`O=C1C[C@H](O)[C@@H]2c3c(ccc(O)c31)-c1ccc(O)c3c1[C@@]2(O)CCC3=O`: the mutagenic call is “active; positive” (Test System: AMES SALMONELLA TYPHIMURIUM, Strain/Indicator: TA98, Metabolic Activation: RAT LIVER S-9, AROCLOR 1254, Method: STANDARD PLATE); “active; positive” under setting [2]; “inactive; negative” (Test System: AMES SALMONELLA TYPHIMURIUM, Strain/Indicator: TA100, Metabolic Activation: RAT LIVER S-9, AROCLOR 1254, Method: STANDARD PLATE); “active; positive” under setting [4]; “active; positive” under setting [7]; “active; positive” (Test System: AMES SALMONELLA TYPHIMURIUM, Strain/Indicator: TA1537, Metabolic Activation: RAT, LIVER, S-9, AROCLOR 1254, Method: STANDARD PLATE). The mutagenic call by setting is: (Test System: Ames Salmonella typhimurium, Strain/Indicator: TA97, Metabolic Activation: None, Method: Standard plate) “inactive; negative. nitrosation increased mutagenicity”; (Test System: Ames Salmonella typhimurium, Strain/Indicator: TA97, Metabolic Activation: Rat, Liver, S-9, Aroclor 1254 (10%), Method: Standard plate) “inactive; negative. nitrosation increased mutagenicity”; (Test System: Ames Salmonella typhimurium, Strain/Indicator: TA102, Metabolic Activation: None, Method: Standard plate) “active; positive. nitrosation yielded mutagenic product”; (Test System: Ames Salmonella typhimurium, Strain/Indicator: TA102, Metabolic Activation: Rat, Liver, S-9, Aroclor 1254 (10%), Method: Standard plate) “active; positive. nitrosation yielded mutagenic product”; (Test System: Ames Salmonella typhimurium, Strain/Indicator: TA104, Metabolic Activation: None, Method: Standard plate) “inactive; negative. nitrosation increased mutagenicity”; (Test System: Ames Salmonella typhimurium, Strain/Indicator: TA104, Metabolic Activation: Rat, Liver, S-9, Aroclor 1254 (10%), Method: Standard plate) “inactive; negative. nitrosation increased mutagenicity”. The mutagenic call is “inactive; negative (positive in presence of nitrosating medium_” (Test System: Chinese hamster fibroblasts, Strain/Indicator: V79 (Hprt)/6-thioguanine, Metabolic Activation: None, Method: Standard plate) and “inactive; negative (positive in presence of nitrosating medium)” (Test System: Rat hepatoma cells, Strain/Indicator: H4IIE (Hprt/6-thioguanine), Metabolic Activation: None, Method: Standard plate).

Turning to `CS(=O)(=O)Nc1ccc(Nc2c3ccc(N=[N+]=[N-])cc3nc3cc(N=[N+]=[N-])ccc23)cc1`, the mutagenic call under setting [7] was “active; positive”.

Turning to `O=C(Cl)Cc1ccccc1`, the mutagenic call under setting [8] is “active; positive”; the mutagenic call (Test System: AMES SALMONELLA TYPHIMURIUM, Strain/Indicator: TA98, Metabolic Activation: RAT LIVER S-9, PCB, Method: PREINCUBATION) is “active; positive”; the mutagenic call (Test System: AMES SALMONELLA TYPHIMURIUM, Strain/Indicator: TA100, Metabolic Activation: NONE, Method: PREINCUBATION) was “active; positive”; the mutagenic call (Test System: AMES SALMONELLA TYPHIMURIUM, Strain/Indicator: TA100, Metabolic Activation: RAT LIVER S-9, PCB, Method: PREINCUBATION) is “active; positive”; the mutagenic call (Test System: AMES SALMONELLA TYPHIMURIUM, Strain/Indicator: TA104, Metabolic Activation: NONE, Method: PREINCUBATION) was “active; positive”; the mutagenic call (Test System: AMES SALMONELLA TYPHIMURIUM, Strain/Indicator: TA104, Metabolic Activation: RAT LIVER S-9, PCB, Method: PREINCUBATION) is “active; positive”. The mutagenic call by setting is: (Test System: E.COLI, Strain/Indicator: WP2 UVRA, Metabolic Activation: NONE, Method: PREINCUBATION) “active; positive”; (Test System: E.COLI, Strain/Indicator: WP2 UVRA, Metabolic Activation: RAT LIVER S-9, PCB, Method: PREINCUBATION) “active; positive”.

With `Cc1c2cc(CO)ccc2nc2c1c1c(c3ccccc32)O1`, the mutagenic call under setting [3] was “inactive; negative”.

Take `CCN(CCCCO)N=O`: the mutagenic call (Test System: AMES SALMONELLA TYPHIMURIUM, Strain/Indicator: TA1535, Metabolic Activation: RAT, LIVER, S-9, KC500 OR PHENOBARBITAL, Method: LIQUID SUSPENSION) was “active; positive”.

In the case of `C[C@H](CCC(=O)O)[C@H]1CC[C@H]2[C@@H]3CC[C@@H]4CC(=O)CC[C@]4(C)[C@H]3C[C@H](O)[C@]12C`, the mutagenic call runs as follows: (Test System: AMES SALMONELLA TYPHIMURIUM, Strain/Indicator: TA98, Metabolic Activation: NONE, Method: FLUCTUATION TEST) “inactive; negative”; under setting [8], “inactive; negative”; (Test System: AMES SALMONELLA TYPHIMURIUM, Strain/Indicator: TA98, Metabolic Activation: RAT, LIVER, S-9, PCB, Method: PREINCUBATION) “inactive; negative”; (Test System: AMES SALMONELLA TYPHIMURIUM, Strain/Indicator: TA100, Metabolic Activation: NONE, Method: FLUCTUATION TEST) “inactive; negative”.
